Results published in patent US4474766A, “Anti-inflammatory/analgesic combination of cyclo-(N-methyl-Ala-Tyr-D-Trp-Lys-Val-Phe) and a selected non-steroidal anti-inflammatory drug (NSAID)” (Merck & Co., Inc., priority 1983, dated 1984).

Test system: NSAID-induced gastric ulcers
Assay: NSAID-Induced Ulcers in the Sprague-Dawley Rat (gastric ulcer assay)
Type: in vivo
Parameters: Inhibition of Gastric Ulcers: unit not given here
From the text: When a selected NSAID, for example, indomethacin, is combined with cyclo-(N-methyl-Ala-Tyr-D-Trp-Lys-Val-Phe) according to the present invention, the following results are obtained from the well-established gastric ulcer assay in the Sprague-Dawley male rat is described below:
Protocol: NSAID-Induced Ulcers in the Sprague-Dawley Rat
Twenty-four (24) hour fasted, male, Sprague-Dawley rats, 130 to 150 gms. each, are randomized into groups for assay. The animals are housed to wire-bottom cages without bedding and allowed free-access to water throughout the fasting and experimental periods. Ulcers are then induced by the peroral administration of NSAID at dose levels predetermined to provoke a similar number of ulcers within 4 hours of additional fasting*. Each NSAID is prepared in 0.5% methyl cellulose vehicle and given at a volume of 10 ml/kg rounded to the nearest 0.1 ml. Either 0.5% methylcellulose vehicle or compound A is co-administered perorally with the NSAID bringing the total volume to 20 ml/kg rounded to the nearest 0.2 ml.
*For example: Indomethacin-20 mg/kg; Naproxen-50 mg/kg; Ibuprofen-100 mg/kg; Diclofenac-75 mg/kg.
Four (4) hours after the administration of NSAID+vehicle, or NSAID+compound A, the animals are sacrificed by CO2 inhalation, the stomachs removed, excised along the inner curvature, washed carefully with cool tap water and placed in 0.9% saline. When all groups have been processed, the mucosal region of the stomachs are examined under a magnifying lens and scored according to the total number of lesions present. Group scores represent the mean score of animals in that group. P values are determined by Student's "t" test, comparing the ulcer scores of individual rats given NSAID+compound A to those dosed with NSAID+vehicle only.

[1] = Compound A 0.01 mg/kg p.o. co-administered with Diclofenac 75 mg/kg p.o., 4 h
[2] = Compound A 0.01 mg/kg p.o. co-administered with Ibuprofen 100 mg/kg p.o., 4 h
[3] = Compound A 0.01 mg/kg p.o. co-administered with Indomethacin 20 mg/kg p.o., 4 h
[4] = Compound A 0.01 mg/kg p.o. co-administered with Naproxen 50 mg/kg p.o., 4 h
[5] = Compound A 0.1 mg/kg p.o. co-administered with Diclofenac 75 mg/kg p.o., 4 h
[6] = Compound A 0.1 mg/kg p.o. co-administered with Ibuprofen 100 mg/kg p.o., 4 h
[7] = Compound A 0.1 mg/kg p.o. co-administered with Indomethacin 20 mg/kg p.o., 4 h
[8] = Compound A 0.1 mg/kg p.o. co-administered with Naproxen 50 mg/kg p.o., 4 h
[9] = Compound A 1.0 mg/kg p.o. co-administered with Diclofenac 75 mg/kg p.o., 4 h
[10] = Compound A 1.0 mg/kg p.o. co-administered with Ibuprofen 100 mg/kg p.o., 4 h
[11] = Compound A 1.0 mg/kg p.o. co-administered with Indomethacin 20 mg/kg p.o., 4 h
[12] = Compound A 1.0 mg/kg p.o. co-administered with Naproxen 50 mg/kg p.o., 4 h

## O=C(O)Cc1ccccc1Nc1c(Cl)cccc1Cl [Diclofenac, diclofenac, reference compound]
Diclofenac 75 mg/kg p.o. + vehicle (control), 4 h
  Inhibition of Gastric Ulcers: 0
Diclofenac 75 mg/kg p.o. + vehicle (control), fasted male rats, 4 h after dosing
  No. of Gastric Ulcers M ± S.E.M.: 14.0 ± 1.6

## COc1ccc2cc([C@H](C)C(=O)O)ccc2c1 [Naproxen, naproxen, reference compound]
Naproxen 50 mg/kg p.o. + vehicle (control), 4 h
  Inhibition of Gastric Ulcers: 0

## CC(C)Cc1ccc(C(C)C(=O)O)cc1 (stereo not drawn) [Ibuprofen, ibuprofen, reference compound]
Ibuprofen 100 mg/kg p.o. + vehicle (control), 4 h
  Inhibition of Gastric Ulcers: 0

## COc1ccc2c(c1)c(CC(=O)O)c(C)n2C(=O)c1ccc(Cl)cc1 [Indomethacin, indomethacin, reference compound]
Indomethacin 20 mg/kg p.o. + vehicle (control), 4 h
  Inhibition of Gastric Ulcers: 0
Indomethacin 20 mg/kg p.o. + vehicle (control), fasted male rats, 4 h after dosing
  No. of Gastric Ulcers M ± S.E.M.: 18.1 ± 1.6

## cyclo-(N-methyl-Ala-Tyr-D-Trp-Lys-Val-Phe) [Compound A]
[1]
  Inhibition of Gastric Ulcers: 0
  No. of Gastric Ulcers M ± S.E.M.: 18.7 ± 2.0
[2]
  Inhibition of Gastric Ulcers: 36.4
  No. of Gastric Ulcers M ± S.E.M.: 8.2 ± 1.0
[3]
  Inhibition of Gastric Ulcers: 0
  No. of Gastric Ulcers M ± S.E.M.: 18.6 ± 4.4
[4]
  Inhibition of Gastric Ulcers: 0
  No. of Gastric Ulcers M ± S.E.M.: 14.0 ± 3.0
[5]
  Inhibition of Gastric Ulcers: 47.9
  No. of Gastric Ulcers M ± S.E.M.: 7.3 ± 2.3
[6]
  Inhibition of Gastric Ulcers: 87.6
  No. of Gastric Ulcers M ± S.E.M.: 1.6 ± 0.6
[7]
  Inhibition of Gastric Ulcers: 50.3
  No. of Gastric Ulcers M ± S.E.M.: 9.0 ± 1.9
[8]
  Inhibition of Gastric Ulcers: 67.7
  No. of Gastric Ulcers M ± S.E.M.: 5.0 ± 2.5
[9]
  Inhibition of Gastric Ulcers: 99.3
  No. of Gastric Ulcers M ± S.E.M.: 0.1 ± 0.1
[10]
  Inhibition of Gastric Ulcers: 92.3
  No. of Gastric Ulcers M ± S.E.M.: 1.0 ± 0.5
[11]
  Inhibition of Gastric Ulcers: 83.4
  No. of Gastric Ulcers M ± S.E.M.: 3.0 ± 1.3
[12]
  Inhibition of Gastric Ulcers: 83.9
  No. of Gastric Ulcers M ± S.E.M.: 2.5 ± 1.4
